Data from ChEMBL document CHEMBL4828752, “Discovery of 1,2,4-triazine dithiocarbamate derivatives as NEDDylation agonists to inhibit gastric cancers” (Eur J Med Chem, 2021).
The source made the active and inactive calls. The calls are words filed in the database; no cut-off is given here.

Assays:
[1] = biological target: T1, NEDD8-activating enzyme E1 regulatory subunit (Homo sapiens) (UniProt Q13564); assay: Activation of NAE1-mediated neddylation in human MGC-803 cells assessed as increase in Cullin7-NEDD8 level incubated for 12 hrs by western blot analysis; format: cell-based; details: filed as agonist, dose 1-3 µM
T1 sequence (whole entry): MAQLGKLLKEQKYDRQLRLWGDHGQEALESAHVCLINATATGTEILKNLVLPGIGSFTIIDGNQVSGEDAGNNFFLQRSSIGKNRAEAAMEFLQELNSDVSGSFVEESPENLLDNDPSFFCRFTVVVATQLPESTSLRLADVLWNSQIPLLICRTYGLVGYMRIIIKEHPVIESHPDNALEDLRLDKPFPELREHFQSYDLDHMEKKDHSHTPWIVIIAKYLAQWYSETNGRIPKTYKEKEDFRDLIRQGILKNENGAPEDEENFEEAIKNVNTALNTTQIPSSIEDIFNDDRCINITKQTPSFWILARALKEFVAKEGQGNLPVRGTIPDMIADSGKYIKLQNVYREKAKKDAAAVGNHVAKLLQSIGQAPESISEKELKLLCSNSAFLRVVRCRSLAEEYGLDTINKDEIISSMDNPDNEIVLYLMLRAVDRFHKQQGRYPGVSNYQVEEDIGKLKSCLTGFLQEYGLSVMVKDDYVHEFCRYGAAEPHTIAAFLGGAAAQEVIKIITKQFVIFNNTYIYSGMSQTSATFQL

[2] = test system: HGC-27; assay: Induction of G2/M phase arrest in human HGC-27 cells assessed as downregulation of cyclin B1 expression at 1 to 9 uM measured after 48 hrs by western blot analysis; format: functional, cell-based; details: dose 1-9 µM
[3] = test system: HGC-27; assay: Induction of cell morphological changes in human HGC-27 cells assessed as reduction in cell density at 1 to 9 uM incubated for 48 hrs by calcein-AM/PI staining based fluorescence analysis; format: functional; details: dose 1-9 µM
[4] = test system: MGC-803; assay: Induction of cell morphological changed in human MGC-803 cells transfected with NEDD8 siRNA at 3 uM measured after 48 hrs by DAPI staining based fluorescence analysis; format: functional
[5] = biological target: T1, NEDD8-activating enzyme E1 regulatory subunit (Homo sapiens); assay: Binding affinity to NAE1 (unknown origin) assessed as downregulation of NAE1 level at 100 uM at 40 to 64 degC by cellular thermal shift assay; details: filed as agonist
[6] = test system: HGC-27; assay: Induction of apoptosis in human HGC-27 cells at 9 uM measured after 48 hrs in the presence of NEDDylation inhibitor, MLN4924 by flow cytometry analysis; format: functional, cell-based
[7] = biological target: T1, NEDD8-activating enzyme E1 regulatory subunit (Homo sapiens); assay: Activation of NAE1-mediated protein degradation in human HGC-27 cells assessed as decrease in YAP/TAZ level at 9 uM measured after 48 hrs in presence of NEDDylation inhibitor, MLN4924 by western blot analysis; format: cell-based
[8] = biological target: T1, NEDD8-activating enzyme E1 regulatory subunit (Homo sapiens); assay: Activation of NAE1-mediated protein degradation in human MGC-803 cells transfected with NEDD8 siRNA assessed as decrease in YAP/TAZ level at 3 uM measured after 48 hrs by western blot analysis; format: cell-based
[9] = test system: HGC-27; assay: Induction of cell morphological changes in human HGC-27 cells at 9 uM measured after 48 hrs in the presence of NEDDylation inhibitor, MLN4924 by DAPI staining based fluorescence analysis; format: functional
[10] = test system: MGC-803; assay: Antiproliferative activity against human MGC-803 cells assessed as reduction in cell viability by xCELLigence based RTCA analysis; format: functional; details: TDE = time-dependent effect
[11] = test system: HGC-27; assay: Induction of mitochondrial membrane potential depolarization in human HGC-27 cells at 1 to 9 uM measured after 48 hrs by JC-1 staining based flow cytometry analysis; format: functional, cell-based; details: dose 1-9 µM
[12] = test system: HGC-27; assay: Antiproliferative activity against human HGC-27 cells assessed as reduction in cell viability at 3 uM measured every 60 mins for 48 hrs in the presence of proteasome inhibitor, MG132 by xCELLigence based RTCA analysis; format: functional
[13] = biological target: T1, NEDD8-activating enzyme E1 regulatory subunit (Homo sapiens); assay: Activation of NAE1-mediated neddylation in human MGC-803 cells assessed as increase in NAE1-NEDD8 level incubated for 12 hrs by western blot analysis; format: cell-based; details: filed as agonist, dose 1-3 µM
[14] = test system: MGC-803; assay: Induction of cell morphological changes in human MGC-803 cells assessed as rounding of nucleus at 1 to 3 uM measured after 48 hrs by DAPI staining based fluorescence analysis; format: functional; details: dose 1-3 µM
[15] = biological target: T1, NEDD8-activating enzyme E1 regulatory subunit (Homo sapiens); assay: Activation of NAE1-mediated neddylation in human HGC-27 cells assessed as increase in Cullin7-NEDD8 level incubated for 12 hrs by western blot analysis; format: cell-based; details: filed as agonist, dose 1-9 µM
[16] = biological target: T1, NEDD8-activating enzyme E1 regulatory subunit (Homo sapiens); assay: Activation of NAE1-mediated neddylation in human HGC-27 cells assessed as increase in Cullin1-NEDD8 level incubated for 12 hrs by western blot analysis; format: cell-based; details: filed as agonist, dose 1-9 µM
[17] = test system: MGC-803; assay: Induction of cell morphological changes in human MGC-803 cells at 3 uM measured after 48 hrs in the presence of NEDDylation inhibitor, MLN4924 by bright field microscopic analysis; format: functional, cell-based
[18] = test system: HGC-27; assay: Downregulation of phosphorylated YAP level in human HGC-27 cells at 1 to 9 uM measured after 48 hrs by western blot analysis; format: functional, cell-based; details: dose 1-9 µM
[19] = test system: HGC-27; assay: Induction of G2/M phase arrest in human HGC-27 cells assessed as downregulation of p-Cdc2 protein expression at 1 to 9 uM measured after 48 hrs by western blot analysis; format: functional, cell-based; details: dose 1-9 µM
[20] = biological target: T1, NEDD8-activating enzyme E1 regulatory subunit (Homo sapiens); assay: Activation of NAE1 (unknown origin) mediated neddylation assessed as Ubc12-NEDD8 level at 2 uM by western blot analysis; details: filed as agonist
[21] = test system: MGC-803; assay: Induction of G2/M phase arrest in human MGC-803 cells assessed as downregulation of CDK1 protein expression at 1 to 3 uM measured after 48 hrs by western blot analysis; format: functional, cell-based; details: dose 1-3 µM
[22] = test system: MGC-803; assay: Induction of cell morphological changes in human MGC-803 cells assessed as reduction in cell density at 3 uM measured after 48 hrs in the presence of NEDDylation inhibitor, MLN4924 by calcein-AM/PI staining based fluorescence analysis; format: functional
[23] = test system: HGC-27; assay: Induction of cell morphological changes in human HGC-27 cells assessed as rounding of nucleus at 1 to 9 uM measured after 48 hrs by DAPI staining based fluorescence analysis; format: functional; details: dose 1-9 µM
[24] = test system: MGC-803; assay: Antiproliferative activity against human MGC-803 cells transfected with NEDD8 siRNA assessed as reduction in cell viability at 3 uM measured every 60 mins for 48 hrs by xCELLigence based RTCA analysis; format: functional
[25] = test system: HGC-27; assay: Induction of G2/M phase arrest in human HGC-27 cells assessed as upregulation of p-histone H3 expression at 1 to 9 uM measured after 48 hrs by western blot analysis; format: functional, cell-based; details: dose 1-9 µM
[26] = test system: MGC-803; assay: Antiproliferative activity against human MGC-803 cells assessed as reduction in cell viability at 3 uM measured every 60 mins for 48 hrs in the presence of NEDDylation inhibitor, MLN4924 by xCELLigence based RTCA analysis; format: functional
[27] = biological target: T1, NEDD8-activating enzyme E1 regulatory subunit (Homo sapiens); assay: Activation of NAE1 in human MGC-803 cells assessed as PARP cleavage at 3 uM measured after 48 hrs in the presence of NEDDylation inhibitor, MLN4924 by western blot analysis; format: cell-based
[28] = test system: MGC-803; assay: Induction of cell morphological changes in human MGC-803 cells at 3 uM measured after 48 hrs in the presence of NEDDylation inhibitor, MLN4924 by DAPI staining based fluorescence analysis; format: functional

- Activity [1]: Dose-Dependent Effect
- Activity [5]: Active
- Activity [7]: inactive
- Activity [8]: inactive
- Activity [13]: Dose-Dependent Effect
- Activity [15]: Dose-Dependent Effect
- Activity [16]: Dose-Dependent Effect
- Activity [20]: Active
- Activity [27]: inactive
SMILES: COc1cc(-c2nc(NC(=O)CSC(=S)N3CCN(C(=O)OC(C)(C)C)CC3)nnc2-c2ccc(C)cc2)cc(OC)c1OC
- Activity [2]: Active
- Activity [3]: Active
- Activity [4]: inactive
- Activity [6]: inactive
- Activity [9]: inactive
- Activity [10]: Tde
- Activity [11]: Active
- Activity [12]: inactive
- Activity [14]: Active
- Activity [17]: inactive
- inhibition [18]: Active
- Activity [19]: Active
- Activity [21]: Active
- Activity [22]: inactive
- Activity [23]: Active
- Activity [24]: inactive
- Activity [25]: Active
- Activity [26]: inactive
- Activity [28]: inactive
